In patent US9598419B1, “Imidazotriazine and imidazodiazine compounds” (Universite de Montreal, priority 2014, dated 2017):
Blank lines part the entries; values can stand above or below the compound they belong to.

Experiments:
PAR4 = target: T1, PAR4 (Homo sapiens, UniProt Q96RI0); experiment: washed platelet aggregation assay (PAR4 agonist peptides); type: cell-based; conditions: washed platelets
T1 construct: PRP was isolated by centrifugation at 170 g for 14 minutes and platelets were further pelleted; from tissue; host or cells: human washed platelets
T1 sequence (Q96RI0 18-385): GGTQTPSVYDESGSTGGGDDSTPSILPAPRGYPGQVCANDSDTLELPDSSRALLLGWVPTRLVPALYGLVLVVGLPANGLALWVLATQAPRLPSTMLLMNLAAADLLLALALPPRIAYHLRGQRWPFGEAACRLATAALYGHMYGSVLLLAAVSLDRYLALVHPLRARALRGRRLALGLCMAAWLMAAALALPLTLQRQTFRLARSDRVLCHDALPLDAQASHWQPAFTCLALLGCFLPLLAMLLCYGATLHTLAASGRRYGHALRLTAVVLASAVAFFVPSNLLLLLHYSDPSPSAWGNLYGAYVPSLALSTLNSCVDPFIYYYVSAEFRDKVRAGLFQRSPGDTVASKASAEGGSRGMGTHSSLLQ
Protocol: Human blood was collected in ACD (85 mM tri-sodium citrate, 78 mM citric acid, 110 mM D-glucose, pH 4.4) at a ratio of 1.4 ml per 10 ml blood. PRP was isolated by centrifugation at 170 g for 14 minutes and platelets were further pelleted by centrifugation at 1300 g for 6 minutes. Platelets were washed once with 10 ml ACD containing 1 mg/ml bovine serum albumin Platelets were resuspended at ˜2.5×10^8/ml in Tyrode's Buffer (137 mM NaCl, 2 mM KCl, 1.0 mM MgCl2, 1 mM CaCl2, 5 mM glucose, 20 mM HEPES pH 7.4).

[1] = target: T2, protease-activated receptor type 4 (PAR4) (Homo sapiens, UniProt Q96RI0); conditions: quoted from the abstract; cited from earlier work
T2 sequence (Q96RI0 18-385): T1 sequence (Q96RI0 18-385)

PAR1 = target: T3, PAR1 (Homo sapiens, UniProt P25116); conditions: ACS patients, phase III; cited from earlier work
T3 construct: host or cells: ACS patients (clinical trial)
T3 sequence (P25116 22-425): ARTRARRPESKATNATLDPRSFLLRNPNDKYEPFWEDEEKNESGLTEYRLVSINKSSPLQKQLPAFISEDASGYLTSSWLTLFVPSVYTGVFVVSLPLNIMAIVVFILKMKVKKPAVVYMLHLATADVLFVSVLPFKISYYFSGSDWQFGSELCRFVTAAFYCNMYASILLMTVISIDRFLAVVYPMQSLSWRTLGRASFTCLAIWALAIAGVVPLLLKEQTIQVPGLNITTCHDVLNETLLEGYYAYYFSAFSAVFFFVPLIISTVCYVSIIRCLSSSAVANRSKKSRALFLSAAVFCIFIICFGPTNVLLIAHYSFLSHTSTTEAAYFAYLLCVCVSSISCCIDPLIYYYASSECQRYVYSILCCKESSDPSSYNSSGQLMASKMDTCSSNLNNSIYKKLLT

EC50 (PAR4): 12 µM
SMILES: C[C@H](N)C(=O)N[C@@H](Cc1ccc(O)cc1)C(=O)N1CCC[C@H]1C(=O)NCC(=O)N[C@@H](CCCCN)C(=O)N[C@@H](Cc1ccccc1)C(=O)O [AYPGKF]

SMILES: CCOC(=O)c1ccc(-c2nn(Cc3ccccc3)c3ccccc23)cc1 [ethyl 4-(1-benzyl-1H-indazol-3-yl)benzoate]
inhibition of PAR4-dependent platelet activation [1]: selective and potent inhibitor

SMILES: CCOC(=O)N[C@@H]1CC[C@@H]2[C@@H](C1)C[C@H]1C(=O)O[C@H](C)[C@H]1[C@H]2/C=C/c1ccc(-c2cccc(F)c2)cn1 [vorapaxar]
cardiovascular events (PAR1): did not significantly reduce
risk of major bleeding (PAR1): significantly increased
